Test results taken from paper PMC9804084, “Multiple drug transporters contribute to the brain transfer of levofloxacin” (CNS Neuroscience & Therapeutics, 2022).
Like-named read-outs stand apart in the source and are kept apart here.

Tests used:
[1] = system: Multidrug resistance-associated proteins (MRPs); test: In vivo microdialysis pharmacokinetics of LVFX with MRPs inhibitor MK571; set-up: species or system rat; conditions: for increase of AUC0–180 / increase of C max: treatment with MK571 vs control group; for Kp / MRT / half-life / Tmax / AUC(0-inf) / Cmax / AUC(0-t): rat, intravenous; for Kp: with MK571 20 mg/kg intraperitoneally; for MRT / half-life / Tmax / AUC(0-inf) / Cmax / AUC(0-t): with MK571 20 mg/kg i.p.; for MRT / half-life / AUC(0-inf) / Cmax / AUC(0-t): mean ± SD; for AUC(0-t): read-out: AUC0–180 (converted)
Method: (§1) On the day of surgery, rats were anesthetized using inhaled isoflurane via a facemask. The rats were placed in a stereotaxic frame (Gene&I), and the body temperature was maintained with a homoeothermic blanket set at 37°C. A midline incision was made to expose the skull. According to the Paxinos and Watson atlas, two microdialysis intracerebral guide cannulae (Eicom Co.) were implanted into the hippocampus CA1 region (Hp‐CA1 coordinates: AP −4.16 mm; ML −2.2 mm; DV −2.9 mm) and lateral ventricle (LV coordinates: AP −1.4 mm; ML +2.2 mm; DV −3.4 mm). Fixed to the skull using a screw and dental cement. After 3 days of recovery, the rats were anesthetized with isoflurane again. An intravascular probe (TP‐100‐20; 20 mm, Eicom Co.) was implanted into the jugular vein toward the right atrium. After the blood microdialysis probe was positioned within the jugular vein, the pipeline was connected to perfuse with ACD solution (citric acid 3.5 mM; sodium citrate 7.5 mM; dextrose 13.6 mM) at a flow rate of […], and the Hamilton microinjection pump was used for continuous perfusion. After stopping isoflurane inhalation, the rats were allowed to wake up naturally on the homoeothermic blanket. The awake rats were placed in a device that allowed them to move freely. Animals were allowed to recover for an additional 24 h.
(§2) All microdialysate concentrations (C m) from the hippocampal ECF and lateral ventricle CSF were converted to the unbound drug concentration (C u) at the target site using the following formula: C u = C m/R dial.
(§3) A total of 32 rats were randomly divided into the following groups: • Control group, N = 12: vehicle solution + LVFX (50 mg/kg). • TAR group, N = 5: Tariquidar (8 mg/kg) + LVFX (50 mg/kg). • Ko143 group, N = 5: Ko143 (15 mg/kg) + LVFX (50 mg/kg). • MK571 group, N = 5: MK571 (20 mg/kg) + LVFX (50 mg/kg). • PRO group, N = 5: Probenecid (50 mg/kg) + LVFX (50 mg/kg).
(§4) Levofloxacin was freshly dissolved in isotonic saline and administered via tail vein injection. Thirty minutes before LVFX administration, the intervention drugs of each group were injected intraperitoneally. To reduce the possible effect of solvents on BBB or BCSFB permeability of LVFX, we prioritized water as the solvent. However, Tariquidar and Ko143 are insoluble in water, and a cosolvent must be used to prepare agents that animals can tolerate. According to the different physicochemical properties of these four inhibitors, the preparation of each transporter inhibitor solution in this experiment was as follows. • P‐glycoprotein (P‐gp) inhibitor Tariquidar[22]: Tariquidar was freshly dissolved in DMSO to 8 mg/ml and then diluted to 4 mg/ml with a solution containing 10% Tween‐80, 25% PEG300, and 65% sterile water. • Breast cancer resistance protein (BCRP) inhibitor Ko143[23]: Ko143 was freshly dissolved in DMSO to 15 mg/ml and then diluted to 7.5 mg/ml with a solution containing 10% Tween‐80, 25% PEG300, and 65% sterile water. • Multidrug resistance‐associated proteins (MRPs) inhibitor MK571[24]: MK571 sodium salt hydrate was dissolved in 1.25% (w/v) aq sodium hydrogen carbonate (NaHCO3) solution to obtain a concentration of 10 mg/ml. • Organic anion transporters (OATs) inhibitor probenecid[25]: Probenecid was dissolved in NaOH (pH = 9.0–9.2) alkalized physiological saline to obtain a concentration of 25 mg/ml.
(§5) The pipelines where the blood and brain probes were installed were perfused at the speed of 2 μl/min with ACD solution and ACSF, respectively. Two brain probes were inserted into guide cannulas of the target site and allowed to equilibrate for 1 h. Subsequently, the rats were treated according to their corresponding groups in the device where they could move freely. Microdialyses samples were collected every 15 min using a fraction collector (EFC‐96, Eicom Co.) for 3 h and stored at 4°C until analysis. Finally, rats were anesthetized and decapitated, and their brain was harvested.

P-glycoprotein (P-gp) = test: In vivo microdialysis pharmacokinetics of LVFX with P-gp inhibitor Tariquidar; set-up: species or system rat; conditions: for MRT / Tmax / AUC(0-inf) / Cmax / half-life / AUC(0-t) / Kp: rat, intravenous, with Tariquidar 8 mg/kg i.p., TAR group, Tariquidar 8 mg/kg i.p. + LVFX 50 mg/kg, N=5; for MRT / AUC(0-inf) / Cmax / half-life / AUC(0-t): mean ± SD; for AUC(0-t): read-out: AUC0–180 (converted)
Method: as §1, §2, §3, §4, §5

[2] = MK571 intervention vs control group
[3] = CSF (lateral ventricle microdialysate, unbound), 30 min before LVFX, CSF, MK571 group, MK571 20 mg/kg i.p. + LVFX 50 mg/kg, N=5
[4] = CSF (lateral ventricle microdialysate, unbound), CSF, MK571 group, MK571 20 mg/kg i.p. + LVFX 50 mg/kg, N=5
[5] = brain ECF (hippocampal microdialysate, unbound), 30 min before LVFX, brain ECF, MK571 group, MK571 20 mg/kg i.p. + LVFX 50 mg/kg, N=5
[6] = 30 min before LVFX, blood, MK571 group, MK571 20 mg/kg i.p. + LVFX 50 mg/kg, N=5
[7] = CSF (lateral ventricle microdialysate, unbound), CSF
[8] = brain ECF (hippocampal microdialysate, unbound), 30 min before LVFX, brain ECF

K p,uu,CSF ([1]; AUCu,CSF/AUCu,blood, MK571 group, MK571 20 mg/kg i.p. + LVFX 50 mg/kg, N=5): 47.9 ± 2.4 %
K p,uu,ECF ([1]; AUCu,ECF/AUCu,blood, MK571 group, MK571 20 mg/kg i.p. + LVFX 50 mg/kg, N=5): 46.0 ± 1.5 %
increase of AUC0–180 ([1]; CSF): 1.26 fold
increase of C max ([1]; CSF): 1.50 fold
increase in K p,uu,CSF [1, 2]: 1.16 fold
increase in K p,uu,ECF [1, 2]: 1.35 fold
increase of AUC0–180 ([1]; brain ECF): 1.47 fold
increase of C max ([1]; brain ECF): 1.55 fold
Kp ([1]; CSF (lateral ventricle microdialysate) relative to blood, 30 min before LVFX, AUCu,CSF/AUCu,blood, MK571 group, MK571 20 mg/kg i.p. + LVFX 50 mg/kg, N=5, read-out: K p,uu,CSF): 0.479 ± 0.024
MRT [1, 3]: 75.8 min
half-life [1, 3]: 54.9 ± 7.43 min
Tmax [1, 4]: 15 min
AUC(0-inf) [1, 4]: 5860 ng·h/mL
Cmax [1, 4]: 5460 ± 190 ng/mL
AUC(0-t) [1, 4]: 5290 ng·h/mL
Kp ([1]; brain ECF (hippocampal microdialysate) relative to blood, 30 min before LVFX, AUCu,ECF/AUCu,blood, MK571 group, MK571 20 mg/kg i.p. + LVFX 50 mg/kg, N=5, read-out: K p,uu,ECF): 0.46 ± 0.015
Tmax [1, 5]: 15 min
AUC(0-inf) [1, 5]: 5630 ng·h/mL
Cmax [1, 5]: 4210 ± 350 ng/mL
MRT [1, 5]: 80.9 min
half-life [1, 5]: 49 ± 15.1 min
AUC(0-t) [1, 5]: 5080 ng·h/mL
Tmax [1, 6]: 15 min
AUC(0-inf) [1, 6]: 11700 ng·h/mL
Cmax [1, 6]: 10100 ± 310 ng/mL
MRT [1, 6]: 69.7 min
half-life [1, 6]: 39.5 ± 4.79 min
AUC(0-t) [1, 6]: 11000 ng·h/mL
change in LVFX in the rat brain after Tariquidar (P-glycoprotein (P-gp); Tariquidar 8 mg/kg i.p. + LVFX 50 mg/kg vs control group): no significant change
MRT (P-glycoprotein (P-gp); CSF (lateral ventricle microdialysate, unbound), 30 min before LVFX, CSF): 80 min
Tmax (P-glycoprotein (P-gp); [7]): 15 min
AUC(0-inf) (P-glycoprotein (P-gp); [7]): 4540 ng·h/mL
Cmax (P-glycoprotein (P-gp); [7]): 3590 ± 280 ng/mL
half-life (P-glycoprotein (P-gp); [7]): 50.5 ± 18.6 min
AUC(0-t) (P-glycoprotein (P-gp); [7]): 3900 ng·h/mL
Kp (P-glycoprotein (P-gp); CSF / blood (unbound, microdialysate), 30 min before LVFX, AUCu,CSF/AUCu,blood, read-out: K p,uu,CSF): 0.37 ± 0.013
Tmax (P-glycoprotein (P-gp); [8]): 15 min
AUC(0-inf) (P-glycoprotein (P-gp); [8]): 4580 ng·h/mL
Cmax (P-glycoprotein (P-gp); [8]): 2810 ± 450 ng/mL
MRT (P-glycoprotein (P-gp); [8]): 86.1 min
half-life (P-glycoprotein (P-gp); [8]): 52.9 ± 9.83 min
AUC(0-t) (P-glycoprotein (P-gp); [8]): 4100 ng·h/mL
Kp (P-glycoprotein (P-gp); brain ECF / blood, 30 min before LVFX, AUCu,ECF/AUCu,blood, read-out: K p,uu,ECF): 0.368 ± 0.035
Tmax (P-glycoprotein (P-gp); 30 min before LVFX, blood): 15 min
AUC(0-inf) (P-glycoprotein (P-gp); 30 min before LVFX, blood): 11800 ng·h/mL
Cmax (P-glycoprotein (P-gp); 30 min before LVFX, blood): 10400 ± 760 ng/mL
MRT (P-glycoprotein (P-gp); 30 min before LVFX, blood): 69.2 min
half-life (P-glycoprotein (P-gp); 30 min before LVFX, blood): 40 ± 6.51 min
AUC(0-t) (P-glycoprotein (P-gp); 30 min before LVFX, blood): 11100 ng·h/mL
Compound: C[C@H]1COc2c(N3CCN(C)CC3)c(F)cc3c(=O)c(C(=O)O)cn1c23 [LVFX, Levofloxacin]
